“Also recorded” adds a separate entry of the source. Where two headings read alike, the source gives them in different places. *: point of attachment. Cbz = O=C(OCc1ccccc1)*; CH2F = FC*
What was measured:
WSU-DLCL2 cells [1] = conditions: read-out: Estimated IC50; cited from earlier work
recombinant human Mcl-1 = recombinant human Mcl-1 (Homo sapiens, UniProt Q07820); assay: Fluorescence polarization-based competitive binding assay
DLCL2 cells = assay: Growth inhibition of DLCL2 cells with caspase inhibitors and/or ApoG2; format: cell-based, human
[2] = in vivo, cited from earlier work
Bcl-2 expressing B-cells = conditions: in vitro; cited from earlier work
[3] = tested on: normal female Balb/c mice; conditions: 120 μM/kg (approximately 62 mg/kg), five days daily po × 3 weeks; versus vehicle control or Apogossypol; cited from earlier work
Maximal tolerated dose = conditions: SCID, mouse, in vivo, iv, 40 mg/kg
[4] = tested on: non-tumor-bearing SCID mice; assay: Maximal tolerated dose
[5] = Stability test in solid state, spectral purity by HPLC-UV; format: physicochemical; conditions: amber glass container, room temperature, n = 2
[6] = Stability under stressed conditions, spectral purity by HPLC-UV; format: physicochemical; conditions: n = 2
WSU-DLCL2 cells [7] = assay: Cell growth inhibition by Trypan Blue cell counting and MTT assay; format: cell-based, human; conditions: WSU-DLCL2, 350 nM, Trypan Blue cell counting
[8] = tested on: non-tumor-bearing SCID mice; conditions: in vivo
WSU-DLCL2 cells [9] = assay: Acridine orange/ethidium bromide; format: cell-based, human; conditions: 4.0 μm
WSU-DLCL2 xenografts = assay: In vivo efficacy test in WSU-DLCL2 SCID mouse xenografts; parameters: species or system ICR-SCID mice; conditions: 600 mg/kg (120 mg/kg daily for 5 days), iv or po
[10] = tested on: primary cells of chronic lymphocytic leukemia; assay: Cytotoxic effect on patient-derived primary cells, Trypan Blue cell counting; conditions: 350 nM or higher, 72 h
FSCCL cells = assay: Cell growth inhibition, Trypan blue cell counting; format: cell-based, human; conditions: high level of Bcl-2
[11] = Serum concentration in mice; format: in vivo; conditions: iv 80 mg/kg per day for five days
WM cells = assay: Cell growth inhibition, Trypan blue cell counting; format: cell-based, human; conditions: very low level of Bcl-2
[12] = tested on: cleavage of caspase-3, caspase-9 and PARP; assay: Western blot of apoptosis markers in WSU-DLCL2 cells; format: cell-based, human; conditions: WSU-DLCL2 whole cell lysate
[13] = tested on: primary cells of mantle cell lymphoma; assay: Cytotoxic effect on patient-derived primary cells, Trypan Blue cell counting; conditions: 350 nM or higher, 72 h
[14] = tested on: protein levels of Bcl-XL or Bim; assay: Western blot of whole cell lysate for Bcl-XL and Bim; format: cell-based, human; conditions: concentrations up to 5 μM
[15] = tested on: normal peripheral blood lymphocytes; assay: Cytotoxic effect on normal lymphocytes, Trypan Blue cell counting; conditions: as high as 8 μM, 72 h
PANC-1 cells = assay: Cell growth inhibition, MTT assay; format: cell-based, human; conditions: PANC-1, very low level of Bcl-2

Sequence of recombinant human Mcl-1 (Q07820 whole entry): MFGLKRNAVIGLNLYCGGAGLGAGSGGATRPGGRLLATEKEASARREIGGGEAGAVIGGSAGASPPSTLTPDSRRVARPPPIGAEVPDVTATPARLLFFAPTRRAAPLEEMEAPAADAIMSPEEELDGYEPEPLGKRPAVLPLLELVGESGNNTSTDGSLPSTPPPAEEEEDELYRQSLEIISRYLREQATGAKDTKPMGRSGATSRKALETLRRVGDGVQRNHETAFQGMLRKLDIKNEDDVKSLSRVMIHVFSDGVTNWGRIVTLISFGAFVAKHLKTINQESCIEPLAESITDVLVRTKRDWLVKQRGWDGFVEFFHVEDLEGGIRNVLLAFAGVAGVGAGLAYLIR

Compound: Cc1cc2c(C(C)C)c(O)c(O)c(C=O)c2c(O)c1-c1c(C)cc2c(C(C)C)c(O)c(O)c(C=O)c2c1O [(-)-gossypol, reference compound]
- IC50 (WSU-DLCL2 cells [1]): > 1 µM
- Ki (recombinant human Mcl-1): 0.17 ± 0.01 µM

Compound: Cbz-LEHD-CH2F
- Growth inhibition, caspase inhibitor alone (DLCL2 cells): no effects of growth inhibition

Compound: Cc1cc2c(C(C)C)c(O)c(O)cc2c(O)c1-c1c(C)cc2c(C(C)C)c(O)c(O)cc2c1O [Apogossypol]
- Blood concentrations over time [2]: superior blood concentrations over time compared to gossypol
- medial lethal dose (LD50) (Bcl-2 expressing B-cells): 3 to 5 µM

Compound: Cc1cc2c(C(C)C)c(O)c(O)c(C=O)c2c(O)c1-c1c(C)cc2c(C(C)C)c(O)c(O)c(C=O)c2c1O [gossypol]
- Bioavailability when given orally ([2]; po): 12.2–17.6%
- medial lethal dose (LD50) (Bcl-2 expressing B-cells): 7.5 to 10 µM
- Hepatotoxicity and gastrointestinal toxicity [3]: a great deal of hepatotoxicity and gastrointestinal toxicity
- MTD at 3 days (Maximal tolerated dose): 120 mg/kg
- Signs of toxicity at MTD ([4]; 120 mg/kg (3 x 40 mg/kg iv)): scruffy and rough hair as well as lethargic behavior
- Weight loss at MTD ([4]; 120 mg/kg (3 x 40 mg/kg iv), data not shown): < 5%
- Lethality ([4]; daily iv injection of 40 mg/kg for 4 days or 60 mg/kg for three days): lethal
- H & E staining of sections of mouse liver, small and large intestines ([4]; versus vehicle control, data not shown): no abnormality

Compound: Cc1cc2c(C(C)C)c(O)c(O)c(C=O)c2c(O)c1-c1c(C)cc2c(C(C)C)c(O)c(O)c(C=O)c2c1O (racemic) [Racemic gossypol, gossypol, reference compound]
- Spectral purity in solid state ([5]; 0 h): 100.0 ± 0%
- Spectral purity in solid state ([5]; 2 weeks): 99.9 ± 0.1%
- Spectral purity in solid state ([5]; 3 weeks): 99.8 ± 0.2%
- Spectral purity in solid state ([5]; 4 days): 99.4 ± 0.1%
- Spectral purity in solid state ([5]; 7 days): 99.8 ± 0.1%
- Spectral purity under stressed conditions ([6]; 0.1 N HCI, 5 mm): 15.8 ± 0.4%
- Spectral purity under stressed conditions ([6]; 0.1 N NaOH, 5 mm): 10.4 ± 0.2%
- Spectral purity under stressed conditions ([6]; 30% H2O2, 5 mm): 14.5 ± 0.4%
- Spectral purity under stressed conditions ([6]; Normal light, 2 h): 92.3 ± 0.2%
- Spectral purity under stressed conditions ([6]; Reference): 92.6 ± 0.6%

Compound: Cbz-Val-Ala-Asp-CH2F
- Growth inhibition, caspase inhibitor alone (DLCL2 cells): no effects of growth inhibition

Compound: Apogossypolone [ApoG2]
- Growth inhibition (WSU-DLCL2 cells [7]): approximately 50%
- H & E staining of sections of mouse liver, small and large intestines [8]: no abnormality
- Apoptotic cells (AO/EtBr) (WSU-DLCL2 cells [9]; 24 h, control approximately 3%): 10%
- Apoptotic cells (AO/EtBr) (WSU-DLCL2 cells [9]; 48 h, control approximately 4%): 17%
- Apoptotic cells (AO/EtBr) (WSU-DLCL2 cells [9]; 72 h, control approximately 7%): 32%
- Spectral purity in solid state ([5]; 0 h): 100.0 ± 0%
- Spectral purity in solid state ([5]; 2 weeks): 100.0 ± 0.1%
- Spectral purity in solid state ([5]; 3 weeks): 100.0 ± 0.1%
- Spectral purity in solid state ([5]; 4 days): 99.7 ± 0.5%
- Spectral purity in solid state ([5]; 7 days): 99.9 ± 0.2%
- Growth inhibition of mouse xenografts, single agent (WSU-DLCL2 xenografts): comparable with that resulted from treatment with CHOP; also recorded: significant growth inhibition
- Cytotoxic effect [10]: significant cytotoxic effect
- Growth inhibition (FSCCL cells): induces growth inhibition
- Serum concentration (unbound) [11]: 5.0 µM
- Growth inhibition (WM cells): induces growth inhibition
- Cleavage of caspase-3, caspase-9 and PARP [12]: resulted in the activation of cleavages of caspase-3, caspase-9 and PARP
- Cytotoxic effect [13]: significant cytotoxic effect
- Protein levels of Bcl-XL or Bim [14]: did not affect significantly
- Cytotoxicity on normal cells [15]: no major cytotoxicity; also recorded: no toxicity
- Growth inhibition (PANC-1 cells): induces growth inhibition
- Spectral purity under stressed conditions ([6]; 0.1 N HCI, 5 mm): 96.5 ± 0.4%
- Spectral purity under stressed conditions ([6]; 0.1 N NaOH, 5 mm): 96.3 ± 0.4%
- Spectral purity under stressed conditions ([6]; 30% H2O2, 5 mm): 97.3 ± 0.2%
- Spectral purity under stressed conditions ([6]; Normal light, 2 h): 95.2 ± 0.2%
- Spectral purity under stressed conditions ([6]; Reference): 98.0 ± 0.4%
- Ki (recombinant human Mcl-1; recombinant Mcl-1, n = 3): 0.025 ± 0.01 µM

Compound: Z-DEVD-FMK
- Growth inhibition, caspase inhibitor alone (DLCL2 cells): no effects of growth inhibition

Reference: paper PMC4106024 (Cancer biology & therapy, 2008)
